# Results from PubChem BioAssay AID504463 (NMMLSC, 2011).
# Active and inactive are the calls of the source.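 The calls were made as follows: active = fluorescence span above 25 thousand equivalent fluorochrome units, or a 33 microM versus DMSO difference score above 25; inactive = the rest.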
# Tested on: S. cerevisiae s288c autofluorescence, flow cytometry 520 nm, 3 h
# Experiment: yeast autofluorescence interference at GFP wavelength, dose response, artefact control for yeast TOR pathway modulator project, flow cytometry, strain s288c, KU SAR set 2, multiplex (AID 504463)
# Settings: at 33.3 µM; active compounds read high
row,SMILES,fluorescence change (kMESF span)
1,CNc1nc(N)cc(Oc2cccc(Cl)c2)n1,0.06 (inactive)
2,CNc1nc(N)c([N+](=O)[O-])c(Nc2cccc(OC)c2)n1,0.14 (inactive)
3,CNc1nc(N)cc(Nc2ccccc2F)n1,0 (inactive)
4,CNc1nc(N)c([N+](=O)[O-])c(Nc2ccccc2Br)n1,0.07 (inactive)
5,CNc1nc(N)cc(Nc2cccc(Cl)c2)n1,0.06 (inactive)
6,Cc1cc(Nc2cc(Nc3ccccc3)nc(NCc3ccccc3)n2)n[nH]1,0.07 (inactive)
7,CNc1nc(N)c([N+](=O)[O-])c(Nc2ccccc2F)n1,0.07 (inactive)
8,CNc1nc(N)c([N+](=O)[O-])c(Nc2cccc(Oc3ccccc3)c2)n1,0.07 (inactive)
9,COc1ccccc1-c1cc(Nc2cc(C)[nH]n2)nc(NCc2ccccc2)n1,0.06 (inactive)
10,CCOC(=O)c1c(N)nc(NC)nc1Nc1cccc(F)c1,0.13 (inactive)
11,CNc1nc(NC2CCCCC2)c([N+](=O)[O-])c(N2CCOCC2)n1,0.14 (inactive)
12,COC(=O)c1cccc(-c2cc(Nc3cc(C)[nH]n3)nc(NCc3ccccc3)n2)c1,0.06 (inactive)
13,CNc1nc(N)c(C(=O)c2ccc(C)c(C)c2)c(Nc2cccc(Cl)c2)n1,0.07 (inactive)
14,CNc1nc(NC)c([N+](=O)[O-])c(Nc2cccc(Cl)c2)n1,0.07 (inactive)
15,CNc1nc(N)c([N+](=O)[O-])c(Nc2cccc(Br)c2)n1,0.07 (inactive)
16,Cc1cc(Nc2cc(-c3ccccc3)nc(NCc3ccccc3)n2)n[nH]1,0.06 (inactive)
17,O=[N+]([O-])c1c(NC2CCCCC2)nc(NCc2ccccc2)nc1N1CCOCC1,0 (inactive)
18,CCNc1nc(N)c([N+](=O)[O-])c(Nc2cccc(Cl)c2)n1,0.49 (inactive)
19,CCNc1nc(NC2CCCCC2)c([N+](=O)[O-])c(N2CCOCC2)n1,0 (inactive)
20,COc1cccc(-c2cc(Nc3cc(C)[nH]n3)nc(NCc3ccccc3)n2)c1,0.13 (inactive)
